Three compounds from patent US9708295B2, “Substituted 2-aminopyridine protein kinase inhibitor” (CHIA TAI TIANQING PHARMACEUTICAL GROUP CO., LTD, priority 2013, dated 2017) can be followed below.

Data set [1] can be described thus: in vivo. Particulars: Sprague-Dawley, rat, po, 5 mg/kg.
For data set [2], the target named is CYP-3A4 (Homo sapiens (Human), UniProt P08684). Kind of data set: Inhibition of CYP-3A4 (midazolam substrate). The note with it: for IC50: substrate midazolam, read-out: Inhibition to CYP-3A4, 3A4_Midazolam. Format: in vitro ADME.
CYP-3A4, sequence (P08684 whole entry): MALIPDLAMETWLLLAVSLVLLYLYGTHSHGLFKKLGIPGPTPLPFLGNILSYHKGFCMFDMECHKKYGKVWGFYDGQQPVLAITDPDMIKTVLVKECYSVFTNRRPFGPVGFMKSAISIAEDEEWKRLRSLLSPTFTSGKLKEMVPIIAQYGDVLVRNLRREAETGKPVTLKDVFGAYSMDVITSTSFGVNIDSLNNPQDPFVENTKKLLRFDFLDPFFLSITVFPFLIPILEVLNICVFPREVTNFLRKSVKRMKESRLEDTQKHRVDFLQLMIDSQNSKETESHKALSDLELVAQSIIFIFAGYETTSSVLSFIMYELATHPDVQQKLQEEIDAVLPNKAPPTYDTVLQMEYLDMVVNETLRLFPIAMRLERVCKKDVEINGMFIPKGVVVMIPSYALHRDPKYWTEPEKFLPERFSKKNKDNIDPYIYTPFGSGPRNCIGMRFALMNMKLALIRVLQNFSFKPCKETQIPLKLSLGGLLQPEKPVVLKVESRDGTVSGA
For data set [3], the target named is ALK kinase (Homo sapiens (Human), UniProt Q9UM73). The note with it: read-out: IC50 (nM), ALK inhibition activity; HTRF, ATP at Km. (In general: TR-FRET usually uses a lanthanide donor and a delayed reading to cut background.)
ALK kinase, sequence (Q9UM73 19-1620): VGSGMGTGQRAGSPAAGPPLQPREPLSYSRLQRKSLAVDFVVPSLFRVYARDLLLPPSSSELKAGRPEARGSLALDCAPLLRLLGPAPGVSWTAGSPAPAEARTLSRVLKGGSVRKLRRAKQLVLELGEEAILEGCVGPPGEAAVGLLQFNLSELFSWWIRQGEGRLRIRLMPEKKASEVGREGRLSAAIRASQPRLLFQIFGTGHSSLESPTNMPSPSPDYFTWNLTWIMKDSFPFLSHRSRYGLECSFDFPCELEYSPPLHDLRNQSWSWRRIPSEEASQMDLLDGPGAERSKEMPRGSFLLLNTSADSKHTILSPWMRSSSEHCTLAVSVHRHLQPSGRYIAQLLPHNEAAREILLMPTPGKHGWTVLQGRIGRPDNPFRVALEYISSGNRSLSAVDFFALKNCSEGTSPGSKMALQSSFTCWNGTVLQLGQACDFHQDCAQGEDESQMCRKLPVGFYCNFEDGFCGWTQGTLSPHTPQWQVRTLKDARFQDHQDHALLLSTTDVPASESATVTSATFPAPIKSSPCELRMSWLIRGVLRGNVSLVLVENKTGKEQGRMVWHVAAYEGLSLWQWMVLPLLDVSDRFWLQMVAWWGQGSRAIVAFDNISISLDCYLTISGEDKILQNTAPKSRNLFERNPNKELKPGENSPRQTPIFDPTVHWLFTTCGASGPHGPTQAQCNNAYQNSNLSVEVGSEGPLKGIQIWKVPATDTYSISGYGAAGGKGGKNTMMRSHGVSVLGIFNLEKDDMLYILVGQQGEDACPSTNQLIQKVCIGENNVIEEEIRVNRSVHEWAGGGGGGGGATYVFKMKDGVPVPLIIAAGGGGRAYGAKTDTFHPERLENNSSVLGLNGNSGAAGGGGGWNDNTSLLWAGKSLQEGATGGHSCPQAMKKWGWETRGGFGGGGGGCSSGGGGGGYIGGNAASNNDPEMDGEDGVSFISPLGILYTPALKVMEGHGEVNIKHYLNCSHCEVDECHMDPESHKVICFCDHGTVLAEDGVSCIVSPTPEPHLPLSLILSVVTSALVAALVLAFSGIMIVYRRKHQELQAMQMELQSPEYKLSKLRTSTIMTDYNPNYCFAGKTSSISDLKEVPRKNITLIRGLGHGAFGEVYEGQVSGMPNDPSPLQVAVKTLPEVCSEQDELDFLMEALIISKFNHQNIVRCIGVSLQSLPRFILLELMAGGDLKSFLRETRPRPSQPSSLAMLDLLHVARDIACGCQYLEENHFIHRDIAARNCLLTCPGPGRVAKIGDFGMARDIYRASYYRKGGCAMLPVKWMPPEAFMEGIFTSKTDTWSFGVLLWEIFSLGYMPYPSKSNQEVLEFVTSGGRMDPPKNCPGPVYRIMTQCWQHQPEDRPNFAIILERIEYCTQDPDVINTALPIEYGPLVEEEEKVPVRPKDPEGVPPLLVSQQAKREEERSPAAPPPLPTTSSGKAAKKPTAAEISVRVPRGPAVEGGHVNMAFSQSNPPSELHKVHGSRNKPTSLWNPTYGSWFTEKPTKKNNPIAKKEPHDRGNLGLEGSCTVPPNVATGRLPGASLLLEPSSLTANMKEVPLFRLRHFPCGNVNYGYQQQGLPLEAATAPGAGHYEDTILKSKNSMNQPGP
Data set [4] is described as follows: In vivo pharmacokinetics in SD rats. Particulars: Sprague-Dawley, rat, po, 5 mg/kg.
Data set [5] deals with G1269S mutated ALK kinase (Homo sapiens (Human), UniProt Q9UM73, G1269S). Kind of data set: biochemical.
G1269S mutated ALK kinase, sequence (Q9UM73 19-1620 G1269S): as the sequence (Q9UM73 19-1620) above, with G1251S counted along it
In data set [6] the test system is human non-small cell lung carcinoma NCI-H2228. Kind of data set: Therapeutic effect on human non-small cell lung carcinoma NCI-H2228 xenografts in nude mice. Format: in vivo. Particulars: D0-13 once a day; for Average tumor volume (mm^3) D0: D0 baseline at grouping. (A xenograft is tissue or cells of one species grown in another, often human tumour cells in immunodeficient mice.)

Data set [7] deals with L1196M mutated ALK kinase (Homo sapiens (Human), UniProt Q9UM73, L1196M). Kind of data set: biochemical.
L1196M mutated ALK kinase, sequence (Q9UM73 19-1620 L1196M): as the sequence (Q9UM73 19-1620) above, with L1178M counted along it

The AUC(0-inf) is the area under the concentration-time curve extrapolated to infinity. Lower therefore signals low exposure. One may read the Cmax as the peak of the concentration-time curve. By Tmax is commonly meant the time from dosing to the highest level. Usually half-life stands for how long it takes for the measured level to halve. On to `COc1cc(-c2cnc(N)c(O[C@H](C)c3c(Cl)ccc(F)c3Cl)c2)cnc1C1=CCNCC1` [Example 30, (R)-5-(1-(2,6-dichloro-3-fluorophenyl)ethoxy)-5′-methoxy-1″,2″,3″,6″-tetrahydro-[3,3′:6′,4″-terpyridin]-6-amine], for which, in data set [1], the AUC(0-inf) turned out to be 1270 ng·h/mL, the highest level (Cmax) was 113 ng/mL, the Tmax came to 3 h and the half-life is 4.43 h. For the same compound, in data set [2], the “inhibition against CYP-3A4 (in words)” value was “no significant inhibition” and the IC50 is more than 10000 nM.
As for `COc1cc(N2CCNC[C@@H]2C)ncc1-c1cnc(N)c(O[C@H](C)c2c(Cl)ccc(F)c2Cl)c1` [Example 27, 5-((R)-1-(2,6-dichloro-3-fluorophenyl)ethoxy)-4′-methoxy-6′-((S)-2-methylpiperazin-1-yl)-[3,3′-bipyridin]-6-amine], the IC50 in data set [3] was found to be 1.96 nM. In addition, in data set [4], the AUC(0-inf) is 601 ng·h/mL, the Cmax worked out at 69.7 ng/mL, the Tmax was found to be 3.67 h and the half-life was 5.45 h. Moreover, in data set [2], the “inhibition against CYP-3A4 (in words)” value was “no significant inhibition” and the IC50 was more than 10000 nM. In addition, the IC50 in data set [5] worked out at 61.3 ± 7.9 nM. Further, the “Average tumor volume (mm^3) D0” value in data set [6] (12.5 mg/kg PO) amounted to 134.3 mm^3. Besides, in data set [6] (12.5 mg/kg PO, D21), the “% Inhibition rate D21” value was 78%, the “% T/C D21” value is 22% and the “Average tumor volume (mm^3) D21” value is reported as 394.8 mm^3. The “Average tumor volume (mm^3) D0” value in data set [6] (25 mg/kg PO) is on record as 131.0 mm^3. In data set [6] (25 mg/kg PO, D21), the “Average tumor volume (mm^3) D21” value is 21.7 mm^3. Also, the “% T/C D21” value in data set [6] (25 mg/kg PO, D21, tumor regression formula) is recorded as −83%. Also, in data set [7], the IC50 stood at 35.1 ± 5.3 nM.
`CCOc1cc(N2CCNC[C@@H]2C)ncc1-c1cnc(N)c(O[C@H](C)c2c(Cl)ccc(F)c2Cl)c1` [Example 53, 5-((R)-1-(2,6-dichloro-3-fluorophenyl)ethoxy)-4′-ethoxy-6′-((S)-2-methylpiperazin-1-yl)-[3,3′-bipyridin]-6-amine]: in data set [4], the AUC(0-inf) was 830 ng·h/mL, the highest level (Cmax) was 62.6 ng/mL, the Tmax came to 3.33 h and the half-life is 4.75 h.
